Measurements reported in ChEMBL document CHEMBL1201862, “PubChem BioAssay data set” (2004).
The source made the active and inactive calls.

Assays:
[1] = biological target: T1, Tyrosine-protein phosphatase non-receptor type 22 (Homo sapiens, UniProt Q9Y2R2); assay type: functional
T1 sequence (Q9Y2R2 whole entry): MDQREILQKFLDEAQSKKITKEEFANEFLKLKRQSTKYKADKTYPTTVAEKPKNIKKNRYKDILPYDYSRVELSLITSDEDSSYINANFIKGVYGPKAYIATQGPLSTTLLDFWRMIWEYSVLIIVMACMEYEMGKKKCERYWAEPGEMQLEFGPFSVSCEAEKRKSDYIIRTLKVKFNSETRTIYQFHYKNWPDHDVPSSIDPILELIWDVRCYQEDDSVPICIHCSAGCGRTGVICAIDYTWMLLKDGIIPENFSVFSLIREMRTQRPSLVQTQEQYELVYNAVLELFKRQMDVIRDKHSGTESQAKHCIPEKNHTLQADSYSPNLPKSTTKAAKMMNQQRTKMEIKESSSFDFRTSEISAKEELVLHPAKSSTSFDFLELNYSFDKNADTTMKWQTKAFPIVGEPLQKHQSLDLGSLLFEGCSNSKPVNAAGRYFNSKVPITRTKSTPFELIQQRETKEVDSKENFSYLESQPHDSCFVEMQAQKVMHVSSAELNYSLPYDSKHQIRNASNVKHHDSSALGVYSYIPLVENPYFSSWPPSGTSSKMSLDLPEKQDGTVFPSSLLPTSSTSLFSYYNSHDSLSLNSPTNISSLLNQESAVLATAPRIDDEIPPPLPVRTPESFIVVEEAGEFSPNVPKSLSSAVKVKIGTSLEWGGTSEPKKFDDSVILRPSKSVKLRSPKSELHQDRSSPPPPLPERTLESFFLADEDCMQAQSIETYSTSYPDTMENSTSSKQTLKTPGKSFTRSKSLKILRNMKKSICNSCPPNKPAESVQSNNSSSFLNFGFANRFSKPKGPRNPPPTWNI

[2] = biological target: T2, Tyrosine-protein phosphatase non-receptor type 7 (Homo sapiens, UniProt P35236); assay type: functional
T2 sequence (P35236 whole entry): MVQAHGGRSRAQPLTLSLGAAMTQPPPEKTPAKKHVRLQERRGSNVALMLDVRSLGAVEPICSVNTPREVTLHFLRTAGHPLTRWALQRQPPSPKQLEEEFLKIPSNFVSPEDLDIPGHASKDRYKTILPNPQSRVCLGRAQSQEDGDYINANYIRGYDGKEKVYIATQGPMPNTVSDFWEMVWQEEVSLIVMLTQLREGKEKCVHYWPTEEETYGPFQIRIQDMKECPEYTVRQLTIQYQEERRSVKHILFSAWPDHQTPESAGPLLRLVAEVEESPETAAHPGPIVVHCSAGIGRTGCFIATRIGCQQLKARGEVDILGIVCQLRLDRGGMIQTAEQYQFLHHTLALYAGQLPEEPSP

[3] = biological target: T1, Tyrosine-protein phosphatase non-receptor type 22; assay type: functional; remark: listed apart in the source
[4] = biological target: T3, Short transient receptor potential channel 4 (Mus musculus, UniProt Q9QUQ5); experiment: block of DAMGO-driven TRPC4 calcium entry – cell-based, HEK293 TRPC4/mu-opioid, Fluo-4 calcium, dose response (AID 434942); assay type: functional;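 also: potency of inhibitors blocking the TRPC4 calcium response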
T3 sequence (Q9QUQ5 whole entry): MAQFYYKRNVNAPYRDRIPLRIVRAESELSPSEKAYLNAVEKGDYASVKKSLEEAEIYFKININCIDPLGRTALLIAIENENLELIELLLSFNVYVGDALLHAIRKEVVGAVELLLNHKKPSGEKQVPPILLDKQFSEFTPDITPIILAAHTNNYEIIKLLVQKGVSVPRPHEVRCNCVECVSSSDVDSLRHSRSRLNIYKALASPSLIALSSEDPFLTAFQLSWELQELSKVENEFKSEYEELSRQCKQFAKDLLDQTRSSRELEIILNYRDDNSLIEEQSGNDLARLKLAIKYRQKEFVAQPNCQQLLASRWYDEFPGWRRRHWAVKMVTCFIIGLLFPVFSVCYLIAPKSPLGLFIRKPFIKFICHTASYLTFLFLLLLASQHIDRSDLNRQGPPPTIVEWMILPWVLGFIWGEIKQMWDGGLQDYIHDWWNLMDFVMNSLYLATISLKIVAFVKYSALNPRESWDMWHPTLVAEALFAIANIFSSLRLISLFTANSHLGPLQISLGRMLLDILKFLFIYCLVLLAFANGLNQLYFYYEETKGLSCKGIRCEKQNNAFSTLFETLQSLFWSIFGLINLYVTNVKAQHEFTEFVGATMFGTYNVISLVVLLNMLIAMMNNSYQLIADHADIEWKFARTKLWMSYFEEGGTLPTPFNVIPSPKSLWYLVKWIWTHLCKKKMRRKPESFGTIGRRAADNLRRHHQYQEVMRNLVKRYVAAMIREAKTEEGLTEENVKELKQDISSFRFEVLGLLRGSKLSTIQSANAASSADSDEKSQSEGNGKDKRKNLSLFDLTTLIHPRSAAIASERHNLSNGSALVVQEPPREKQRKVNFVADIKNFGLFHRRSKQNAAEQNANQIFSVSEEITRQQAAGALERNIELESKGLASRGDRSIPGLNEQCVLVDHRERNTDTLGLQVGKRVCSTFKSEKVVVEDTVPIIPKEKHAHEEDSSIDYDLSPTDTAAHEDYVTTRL

Cytochrome P450 3A4 = Cytochrome P450 3A4 (Homo sapiens, UniProt P08684); conditions: Potency;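 also: confirmatory qHTS run detecting inhibitors and substrates of CYP3A4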
Chain of Cytochrome P450 3A4 (P08684 whole entry): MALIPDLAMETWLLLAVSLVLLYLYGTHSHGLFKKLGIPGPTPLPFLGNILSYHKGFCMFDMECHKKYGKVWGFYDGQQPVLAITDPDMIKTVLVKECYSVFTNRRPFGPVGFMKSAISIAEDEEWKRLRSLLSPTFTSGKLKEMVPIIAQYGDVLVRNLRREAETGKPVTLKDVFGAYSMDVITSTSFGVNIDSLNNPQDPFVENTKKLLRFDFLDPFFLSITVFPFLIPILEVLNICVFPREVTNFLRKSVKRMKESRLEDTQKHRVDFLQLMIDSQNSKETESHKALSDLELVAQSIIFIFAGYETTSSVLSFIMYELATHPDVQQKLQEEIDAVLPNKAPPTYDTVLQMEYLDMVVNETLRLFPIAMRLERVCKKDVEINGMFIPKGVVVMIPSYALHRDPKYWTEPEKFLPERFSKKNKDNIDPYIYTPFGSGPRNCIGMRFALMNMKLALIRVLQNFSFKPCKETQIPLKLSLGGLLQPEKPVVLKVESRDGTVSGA

BJ [5] = experiment: BJ-TERT-LT-ST fibroblast viability loss – cell-based, RAS-independent, luminescence, dose response (AID 1935); assay type: functional; conditions: Homo sapiens;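 also: BJ fibroblasts immortalized with TERT plus LT and ST oncogenes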
[6] = DRD fibroblast viability loss – cell-based, non-viral oncogenic, luminescence, dose response (AID 1934); assay type: functional; conditions: Homo sapiens
BJ [7] = experiment: cells; assay type: functional, cell-based; conditions: Homo sapiens
[8] = HEK-293T viability loss after treatment – luminescence, T-cell screen hits, cytotoxicity control for TCR NF-kB inhibitor project, dose response (AID 489026); assay type: functional, cell-based;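 also: cells exposed to compound about 14 hours before the viability readout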
[9] = biological target: Voltage-dependent T-type calcium channel subunit alpha-1H (Homo sapiens, UniProt O95180); assay type: functional;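 also: channel activity triggered by adding a high calcium stimulation buffer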
Chain of Voltage-dependent T-type calcium channel subunit alpha-1H (O95180 whole entry): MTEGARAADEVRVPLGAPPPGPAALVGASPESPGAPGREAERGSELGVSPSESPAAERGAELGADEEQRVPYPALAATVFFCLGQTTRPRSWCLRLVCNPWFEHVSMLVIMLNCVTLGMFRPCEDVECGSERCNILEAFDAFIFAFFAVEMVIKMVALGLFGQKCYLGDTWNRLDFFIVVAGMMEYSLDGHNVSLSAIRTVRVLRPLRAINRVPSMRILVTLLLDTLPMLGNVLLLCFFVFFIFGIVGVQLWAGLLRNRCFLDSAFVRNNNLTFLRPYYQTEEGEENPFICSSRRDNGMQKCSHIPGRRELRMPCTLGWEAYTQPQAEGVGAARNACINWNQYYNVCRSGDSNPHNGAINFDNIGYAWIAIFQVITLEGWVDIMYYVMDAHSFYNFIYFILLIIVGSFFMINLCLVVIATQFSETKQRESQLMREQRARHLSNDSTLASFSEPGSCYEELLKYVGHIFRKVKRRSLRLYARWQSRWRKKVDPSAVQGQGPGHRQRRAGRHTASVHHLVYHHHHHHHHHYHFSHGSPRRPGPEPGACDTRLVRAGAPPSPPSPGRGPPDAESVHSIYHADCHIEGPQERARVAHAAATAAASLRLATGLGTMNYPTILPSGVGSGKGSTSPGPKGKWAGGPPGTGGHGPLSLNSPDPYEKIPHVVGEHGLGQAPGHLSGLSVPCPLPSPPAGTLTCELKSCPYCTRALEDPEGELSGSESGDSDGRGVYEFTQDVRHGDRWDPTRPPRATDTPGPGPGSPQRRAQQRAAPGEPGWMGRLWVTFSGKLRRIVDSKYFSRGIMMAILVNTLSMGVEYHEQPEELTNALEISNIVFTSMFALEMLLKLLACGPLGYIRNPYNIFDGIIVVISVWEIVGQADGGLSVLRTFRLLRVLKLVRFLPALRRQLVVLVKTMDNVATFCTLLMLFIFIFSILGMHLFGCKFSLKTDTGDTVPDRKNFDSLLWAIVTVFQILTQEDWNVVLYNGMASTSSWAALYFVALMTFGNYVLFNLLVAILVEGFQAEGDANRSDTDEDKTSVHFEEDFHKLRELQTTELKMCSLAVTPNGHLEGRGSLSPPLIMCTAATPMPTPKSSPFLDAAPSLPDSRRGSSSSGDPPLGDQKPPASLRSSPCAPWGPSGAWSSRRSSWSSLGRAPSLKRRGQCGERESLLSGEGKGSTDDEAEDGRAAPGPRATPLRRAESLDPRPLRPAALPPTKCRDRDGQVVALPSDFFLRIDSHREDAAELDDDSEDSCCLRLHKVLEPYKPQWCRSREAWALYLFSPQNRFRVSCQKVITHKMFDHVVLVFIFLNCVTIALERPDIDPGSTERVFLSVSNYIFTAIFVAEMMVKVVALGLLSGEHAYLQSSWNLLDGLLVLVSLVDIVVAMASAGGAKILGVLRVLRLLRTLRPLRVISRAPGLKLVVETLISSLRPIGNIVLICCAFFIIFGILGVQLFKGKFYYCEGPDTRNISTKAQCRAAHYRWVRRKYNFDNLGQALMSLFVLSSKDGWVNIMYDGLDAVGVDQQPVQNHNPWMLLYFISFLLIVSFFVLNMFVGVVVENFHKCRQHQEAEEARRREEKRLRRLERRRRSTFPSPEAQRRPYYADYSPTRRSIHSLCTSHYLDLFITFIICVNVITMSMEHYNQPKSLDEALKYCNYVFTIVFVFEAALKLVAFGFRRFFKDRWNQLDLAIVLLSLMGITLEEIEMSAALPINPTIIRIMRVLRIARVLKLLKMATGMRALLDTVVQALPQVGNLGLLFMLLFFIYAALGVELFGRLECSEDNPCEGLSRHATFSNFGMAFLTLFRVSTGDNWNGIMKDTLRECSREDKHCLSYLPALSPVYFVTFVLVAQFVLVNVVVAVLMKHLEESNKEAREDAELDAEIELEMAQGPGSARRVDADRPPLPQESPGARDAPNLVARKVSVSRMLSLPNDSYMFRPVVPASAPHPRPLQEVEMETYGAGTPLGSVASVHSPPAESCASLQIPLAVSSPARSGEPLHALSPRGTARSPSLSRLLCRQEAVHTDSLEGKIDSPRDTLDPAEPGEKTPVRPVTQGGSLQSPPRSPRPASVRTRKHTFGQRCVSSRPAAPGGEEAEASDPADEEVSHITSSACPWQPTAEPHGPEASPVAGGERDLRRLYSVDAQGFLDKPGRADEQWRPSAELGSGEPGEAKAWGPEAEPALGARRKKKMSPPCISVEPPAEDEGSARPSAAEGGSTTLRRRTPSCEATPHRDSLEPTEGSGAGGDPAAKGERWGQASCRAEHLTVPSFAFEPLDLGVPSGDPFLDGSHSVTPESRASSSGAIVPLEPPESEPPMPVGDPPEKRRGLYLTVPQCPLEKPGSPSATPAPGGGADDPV

BJ [10] = experiment: BJ-TERT fibroblast viability loss – cell-based, RAS-independent, luminescence, dose response (AID 1933); assay type: functional; conditions: Homo sapiens
[11] = biological target: Eukaryotic translation initiation factor 4E (Mus musculus, UniProt P63073); experiment: blockers of eIF4G binding by eIF4E – biochemical, TR-FRET, dose response (AID 855); assay type: functional;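 also: potency for disrupting eIF4E binding to eIF4GI seen as loss of FRET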
Chain of Eukaryotic translation initiation factor 4E (P63073 whole entry): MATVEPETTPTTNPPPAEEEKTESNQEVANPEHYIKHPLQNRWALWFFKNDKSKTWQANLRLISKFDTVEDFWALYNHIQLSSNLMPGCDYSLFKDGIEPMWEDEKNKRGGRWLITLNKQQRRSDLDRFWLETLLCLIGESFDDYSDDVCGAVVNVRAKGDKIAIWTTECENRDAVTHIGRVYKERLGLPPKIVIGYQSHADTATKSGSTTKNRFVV

INS1 = experiment: INS-1E survival protection against cytokine death – cell-based, luminescence, retest, dose response (AID 449756); assay type: functional; conditions: Rattus norvegicus;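 also: cell death triggered by IL-1 beta plus TNF-alpha plus IFN-gamma mixture; protective hits raise ATP signal compared with cytokine alone wells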
[12] = HEK-293T cell viability reduction – luminescence, B-cell screen hits, cytotoxicity control for BCR NF-kB inhibitor project, dose response (AID 489021); assay type: functional, cell-based;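 also: HEK-293T cells carrying an NF-kB luciferase reporter; cells exposed to compound for about 14 hours before viability readout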
[13] = Trypanosoma cruzi growth suppression in host cells – NIH3T3 host cells, beta-gal luminescence, confirmation (AID 2044); assay type: functional, cell-based;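 also: intracellular parasites grown in NIH/3T3 mouse fibroblasts as host cells; luminescent beta-galactosidase reporter signal from transgenic T. cruzi replicating inside host cells; inhibitors lower the luminescence signal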
[14] = HepG2 cell cytotoxicity, dose response, cytotoxicity control for non-replicating M. tuberculosis project (AID 489018); assay type: functional; conditions: Mycobacterium tuberculosis
[15] = THP-1 cell cytotoxicity, dose response, cytotoxicity control for non-replicating M. tuberculosis project (AID 489025); assay type: functional
[16] = toxicity toward HepG2 liver cells – cell-based, plate reader, cherry-pick, antagonist series, cytotoxicity control, dose response (AID 743416); assay type: functional
[17] = blockers of bursicon-stimulated LGR2 cAMP reporter – cell-based, HEK293, CRE-luciferase reporter, cherry pick, set 2, dose response (AID 743343); assay type: functional;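 also: transfected cells were stimulated with diluted bursicon conditioned medium after compound addition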
[18] = viability loss in HEK293 cells – cell-based, plate reader, cherry-picked samples, cytotoxicity control, dose response (AID 743446); assay type: functional
cells = assay type: functional
[19] = blockade of melanocortin 4 receptor signaling – cell-based, plate reader, cherry pick, counter-screen for LGR2 antagonist project, dose response (AID 743444); assay type: functional;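 also: transfected HEK 293 cells stimulated with alpha-MSH peptide; potency of inhibitors of the alpha-MSH evoked signal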
[20] = NIH3T3 cell viability loss – ATP luminescence, mouse fibroblasts, counter-screen, dose response (AID 2010); assay type: functional, cell-based;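 also: cells exposed to compound for about 90 hours before reading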
[21] = A549 cell cytotoxicity, dose response, cytotoxicity control, plate reader, cherry-pick, antagonist series (AID 743412); assay type: functional, cell-based
[22] = Vero E6 cell cytotoxicity, dose response, cytotoxicity control for non-replicating M. tuberculosis project, secondary assay (AID 492998); assay type: functional, VeroE6; conditions: Vero C1008

CN(C)S(=O)(=O)N1CCN(S(=O)(=O)c2ccc3ccccc3c2)CC1
IC50 [1]: > 79.4 µM (inactive)
IC50 [2]: > 79.4 µM (inactive)
IC50 [3]: > 79.4 µM (inactive)

CCOC(=O)C1(CCOc2ccccc2)CCN(Cc2cccn2-c2ncccn2)CC1
EC50 [4]: 1.88 µM (active)

CCOc1ccc2[nH]c3c(N4CCN(c5ccccn5)CC4)ncnc3c2c1
EC50 [4]: 1.19 µM (active)

CC(=O)N1CCN(c2ccccc2NC(=O)c2ccc3ccccc3c2)CC1
EC50 [4]: 1.5 µM (active)

Oc1ccc(C2Oc3cc(O)cc(O)c3CC2O)cc1 (stereo unspecified)
AC50 (Cytochrome P450 3A4): 12.6 µM (inconclusive)

COc1ccccc1N1CCN(C(=O)C2c3ccccc3Oc3ccccc32)CC1
EC50 (BJ [5]): 1.65 µM (inconclusive)
EC50 [6]: 2.06 µM (inconclusive)
EC50 (BJ [7]): 40.2 µM (inconclusive)
IC50 [8]: > 80 µM (inactive)
EC50 [9]: 3.44 µM (active)
EC50 (BJ [10]): 2.13 µM (active)

CC1=CC2=NC(=O)/C(=C\c3cc(C)n(-c4ccccc4)c3C)C(=N)N2O1
IC50 [11]: > 64 µM (inactive)

CCN(Cc1ccccc1)C(c1ccc(C(F)(F)F)cc1)c1nnnn1C(C)(C)C (stereo unspecified)
EC50 [9]: 11.8 µM (active)
AC50 (INS1): 6.45 µM (active)

Cc1ccc(C(=O)CSc2nnc(COc3cccc(C)c3)o2)cc1
IC50 [12]: > 80 µM (inactive)

Cn1c(N)c(C(=O)COC(=O)c2cc(-c3ccccc3)nc3ccccc23)c(=O)n(Cc2ccccc2)c1=O
AC50 (Cytochrome P450 3A4): 12.6 µM (inconclusive)

Cc1cc([N+](=O)[O-])ccc1NC(=O)Nc1ccc(F)cc1F
EC50 [13]: 4.36 µM (active)
CC50 [14]: > 20 µM (active)
CC50 [15]: 20.3 µM (active)
AC50 [16]: 18.8 µM (active)
AC50 [17]: 30.9 µM (active)
AC50 [18]: 22.8 µM (active)
IC50 (cells): 46.7 µM (active)
AC50 [19]: 30.1 µM (active)
EC50 [20]: > 60 µM (not active)
AC50 [21]: 19.6 µM (active)
CC50 [22]: > 20 µM (active)

COc1ccc2ccccc2c1C1CC(=O)N2CN(C)CSC2=C1C#N (stereo unspecified)
IC50 [11]: > 64 µM (inactive)

CCC(CC)c1nnc(NC(=O)C2COc3ccccc3O2)s1 (stereo unspecified)
EC50 [9]: 3.85 µM (active)
